Experiment [1] has as its system diarrhea induced in rats by prostaglandin E2. In words: inhibition of the diarrhea induced in rats by intraperitoneal prostaglandin E2. The experiment is classed as in vivo. Particulars: 10 mg/Kg p.o. in the rat. The protocol:
The antidiarrheal effect of the compounds of the invention is determined by measuring the inhibition of the diarrhea induced in rats by the intraperitoneal administration of prostaglandin E2.
The test is carried out as follows:
Female Sprague-Dawley rats weighing 200-250 g and fasted for 18 hours are employed. The test compounds are dissolved in dimethylsulfoxide diluted with water to a 30-50% dimethyl sulfoxide concentration and administered orally by gastric lavage in a volume of 1 ml/Kg. Thirty or sixty minutes later, prostaglandin E2 (150 μg) is administered i.p. in a volume of 0.5 ml of water. The decrease in fecal excretion compared to untreated animals is measured for a period of 30 minutes after administration of prostaglandin E2.

The subject of experiment [2] is rat stomach parietal cells. Kind of experiment: inhibition of acid secretion in rat stomach parietal cells (14C-aminopyrine accumulation). The experiment is classed as cell-based. Particulars: histamine (1 mM) and isobutyl methylxanthine (0.1 mM). As to the method: Inhibition of acid secretion, indicative of antiulcer activity, can be determined in vitro in rat stomach parietal cells as follows:
Approximately 1×10^6 parietal cells (18-22% enriched) are incubated in a balanced salt solution containing glucose, BSA (bovine serum albumin), 0.1 uCi of ^14 C-aminopyrine, histamine (1 mM), isobutyl methylxanthine (0.1 mM) and the compound to be tested under 95% oxygen at 37° C. for a period of 40 minutes. The cells are then washed, ruptured with distilled water and analyzed by scintillation spectrometry. A decrease in the accumulation of ^14 C-aminopyrine in the cells represents an indirect measure of the inhibition of acid secretion.

Experiment [3] concerns the target calmodulin (Bos taurus, UniProt P62157). Kind of experiment: inhibition of the calmodulin induced activation of bovine c-AMP phosphodiesterase. The note with it: in vitro; read-out: concentration inhibiting calmodulin-induced activation of phosphodiesterase by 50%. The experiment is classed as biochemical. As to the method:
The calmodulin inhibitory properties indicative of the antisecretory activity of said new compounds are determined in vitro by measuring the inhibition of the calmodulin induced activation of bovine c-AMP phosphodiesterase, according to the method described by J. A. Norman et al, Mol. Pharmacology 16, 1089 (1979).

Each structure is given as a SMILES string.

For the molecule `CC1(CN2CCC(n3c(=O)[nH]c4ccccc43)CC2)OCc2ccccc2-n2cccc21` (stereo not drawn) [Example 1, 1,3-Dihydro-1-{1-[(4-methyl-4H,6H,-pyrrolo[1,2-a][4,1]-benzoxazepin-4-yl)-methyl]-4-piperidinyl}-2H-benzimidazol-2-one (1:1)maleate], the “prostaglandin E2 induced fecal excretion” value in experiment [1] is listed as “reduces prostaglandin E2 induced fecal excretion”. Also, the values for the IC50 in experiment [2] and in experiment [3] were about 0.3 µM and about 3 µM, respectively.

These data come from patent US4758559A, “Pyrrolo[1,2-a] [4,1]benzoxazepine derivatives useful as calmodulin and histamine inhibitors” (Ciba-Geigy Corporation, priority 1986, dated 1988).
